Test results taken from patent US7947726B2, “Non-steroidal ligands for the glucocorticoid receptor, and compositions thereof” (The Regents of the University of California, priority 2002, dated 2011).
Several values for one entry are separate records, joined by “and”; a condition that tells them apart may be missing. Identical values can stand only once. Like-named read-outs stand apart in the source and are kept apart here.

Experiments:
Assay type in all cases: cell-based
Coll A = Coll A repression; conditions: Table 5; for Emax: read-out: Repression Coll A % max repression; for EC50: read-out: Repression Coll A pot (EC50)
GR [1] = target: T1, GR (Rattus norvegicus, UniProt P06536); experiment: AP-1 repression luciferase assay in U2OS cells stably transfected with rat GR; conditions: Table 5, TPA-stimulated U2OS cells; for EC50: read-out: Repression AP-1 pot (EC50); for Emax: U2OS, 12 h, read-out: Repression AP-1 % max repression
T1 construct: expressed in transfected cells; gift of Keith Yamamoto
T1 sequence (P06536 1-795): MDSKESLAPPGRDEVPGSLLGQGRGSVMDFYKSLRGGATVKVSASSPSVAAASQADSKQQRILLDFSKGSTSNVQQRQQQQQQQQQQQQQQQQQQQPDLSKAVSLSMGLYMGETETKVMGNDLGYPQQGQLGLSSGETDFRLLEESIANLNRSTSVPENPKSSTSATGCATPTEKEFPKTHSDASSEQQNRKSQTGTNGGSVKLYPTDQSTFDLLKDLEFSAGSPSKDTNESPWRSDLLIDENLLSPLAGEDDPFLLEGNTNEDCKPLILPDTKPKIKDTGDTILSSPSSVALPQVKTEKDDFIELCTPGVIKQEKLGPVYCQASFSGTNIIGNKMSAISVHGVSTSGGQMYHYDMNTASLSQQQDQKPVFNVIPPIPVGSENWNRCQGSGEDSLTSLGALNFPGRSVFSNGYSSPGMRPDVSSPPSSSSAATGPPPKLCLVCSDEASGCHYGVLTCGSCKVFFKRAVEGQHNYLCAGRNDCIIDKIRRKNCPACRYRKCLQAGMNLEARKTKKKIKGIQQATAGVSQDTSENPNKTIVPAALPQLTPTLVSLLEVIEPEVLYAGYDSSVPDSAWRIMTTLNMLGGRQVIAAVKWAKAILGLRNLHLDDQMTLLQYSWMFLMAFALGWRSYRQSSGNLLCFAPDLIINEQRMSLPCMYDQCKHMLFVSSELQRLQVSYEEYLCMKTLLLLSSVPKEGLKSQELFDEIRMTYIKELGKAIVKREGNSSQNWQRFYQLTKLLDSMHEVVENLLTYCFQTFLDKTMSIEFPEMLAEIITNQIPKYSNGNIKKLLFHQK
Description: For API repression assays, U2OS cells stably transfected with rat GR were grown in similar media as for CV-1 cells with the exception of the FBS concentration, which was 10% and the only antibiotic was […]. Cells were plated and transfected in a similar fashion, except for plasmids, which in this case were 50 ng/well AP1-Luc and 10 ng/well β-galactosidase. Post-transfection, cells were incubated with either 50 ng/mL TPA (Phorbol 12-myristate 13-acetate), or 50 ng/mL TPA and various hormone dilutions in 10% charcoal treated FBS media. The cells were incubated for 12 h, and the lysis, β-galactosidase assay, and luciferase assay were performed as previously described.

GR [2] = target: T2, GR (Homo sapiens, UniProt P04150); experiment: GRE (TAT3-Luc) activation luciferase assay in CV-1 cells transfected with GR
T2 construct: expressed in transfected cells; host or cells: CV-1 cells, transient transfection (plasmid a gift of Keith Yamamoto, UCSF)
T2 sequence (P04150 1-777): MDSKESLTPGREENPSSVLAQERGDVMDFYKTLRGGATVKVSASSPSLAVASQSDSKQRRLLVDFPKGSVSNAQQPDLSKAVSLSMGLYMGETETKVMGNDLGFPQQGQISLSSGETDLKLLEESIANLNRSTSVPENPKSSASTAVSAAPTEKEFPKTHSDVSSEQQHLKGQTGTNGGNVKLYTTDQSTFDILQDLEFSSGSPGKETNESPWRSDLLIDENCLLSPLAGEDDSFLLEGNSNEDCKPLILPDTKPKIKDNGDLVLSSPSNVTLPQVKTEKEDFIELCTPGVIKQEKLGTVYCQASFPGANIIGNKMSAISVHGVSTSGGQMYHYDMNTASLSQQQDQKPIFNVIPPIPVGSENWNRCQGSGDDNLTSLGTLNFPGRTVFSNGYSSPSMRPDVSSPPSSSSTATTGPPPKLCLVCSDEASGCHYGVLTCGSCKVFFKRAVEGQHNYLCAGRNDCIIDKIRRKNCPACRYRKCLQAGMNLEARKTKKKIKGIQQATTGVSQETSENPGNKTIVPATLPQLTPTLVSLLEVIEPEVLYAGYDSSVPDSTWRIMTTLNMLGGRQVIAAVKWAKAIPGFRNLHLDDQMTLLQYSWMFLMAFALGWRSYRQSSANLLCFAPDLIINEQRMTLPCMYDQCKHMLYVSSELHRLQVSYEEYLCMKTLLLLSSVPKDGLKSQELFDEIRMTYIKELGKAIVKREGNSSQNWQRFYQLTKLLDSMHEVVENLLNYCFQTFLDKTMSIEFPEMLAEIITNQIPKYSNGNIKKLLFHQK
Description: Cells were plated into tissue culture treated, 96 well flat bottom plates (25,000 cells/well), and incubated for 12 h at 37° C. Cells were then transfected using the Lipofectamine PLUS transfection reagent (Gibco BRL). DNA-lipid complexes of 5 ng GR, 50 ng TAT3-Luc, 7.5 ng β-galactosidase, 1 μL-well PLUS reagent and 0.67 μL-well lipofectamine in 50 μL/well serum free media were added to cells and incubated for 4 h at 37° C. Complexes were removed and hormones diluted in 5% charcoal-stripped FBS were added to the cells, which were then incubated for 24 hours at 37° C. Media was removed and the cells were washed with 100 μL Ca^+2, Mg^+2 free phosphate buffered saline (PBS). Lysis was achieved by adding 50 μL of Passive Lysis Buffer (Promega Corp, Madison, Wis.) and shaking the plate for 15 min. 15 μL of this lysate was then used to assay β-galactosidase activity (β-galactosidase enzyme assay system, Promega Corp., recommended procedures followed). The Luciferase Assay System (Promega Corp.) was used to assay luciferase activity. 100 μL of luciferase assay reagent was added rapidly to the plate and luminescence was measured for 10 ms/well on an Analyst AD Detection System (LJL Biosystems, Sunnyvale, Calif.).

[3] = Table 4, read-out: GR pot (EC50)

| Structure (SMILES) | Emax (Coll A) [%] | EC50 (Coll A) [nM] | EC50 (GR [1]) | Emax (GR [1]) [%] | EC50 (GR [2]; Table 1, read-out: GR pot(EC50)) [nM] | GRE activation max fold activation (GR [2]; Table 4) | EC50 (GR [2]; [3]) |
| --- | --- | --- | --- | --- | --- | --- | --- |
| Cc1cc(O)cc(C)c1C(O)C1CCCC2=Cc3c(cnn3-c3ccc(F)cc3)CC21C (stereo not shown) [Compound 227, 4-{[1-(4-Fluoro-phenyl)-4a-methyl-4,4a,5,6,7,8-hexahydro-1H-benzo[f]indazol-5-yl]-hydroxy-methyl}-3,5-dimethyl-phenol] | 75 | 6.9 | 6 nM | 77 | 125 | 95 ± 23 | 130 ± 43 nM |
| CC12Cc3cnn(-c4ccc(F)cc4)c3C=C1CCCC2C(O)c1cccc2[nH]ccc12 (stereo not shown) [Compound 237, [1-(4-Fluoro-phenyl)-4a-methyl-4,4a,5,6,7,8-hexahydro-1H-benzo[f]indazol-5-yl]-(1H-indol-4-yl)-methanol] | 75 | 8.1 | 4.9 nM | 80 | – | 92 ± 18 | 149 ± 91 nM |
| CC12Cc3cnn(-c4ccc(F)cc4)c3C=C1CCCC2C(O)c1ccsc1 (stereo not shown) [Compound 238, [1-(4-Fluoro-phenyl)-4a-methyl-4,4a-5,6,7,8-hexahydro-1H-benzo[f]indazol-5-yl]-thiophen-3-yl-methanol] | 68 | 27 | 19.1 nM and 14.7 nM | 75 | – | 86 ± 4 and 112 ± 75 | 251 nM and 230 nM |
